Bounds are passed on as bounds.

T1 sequence (Q00975 whole entry): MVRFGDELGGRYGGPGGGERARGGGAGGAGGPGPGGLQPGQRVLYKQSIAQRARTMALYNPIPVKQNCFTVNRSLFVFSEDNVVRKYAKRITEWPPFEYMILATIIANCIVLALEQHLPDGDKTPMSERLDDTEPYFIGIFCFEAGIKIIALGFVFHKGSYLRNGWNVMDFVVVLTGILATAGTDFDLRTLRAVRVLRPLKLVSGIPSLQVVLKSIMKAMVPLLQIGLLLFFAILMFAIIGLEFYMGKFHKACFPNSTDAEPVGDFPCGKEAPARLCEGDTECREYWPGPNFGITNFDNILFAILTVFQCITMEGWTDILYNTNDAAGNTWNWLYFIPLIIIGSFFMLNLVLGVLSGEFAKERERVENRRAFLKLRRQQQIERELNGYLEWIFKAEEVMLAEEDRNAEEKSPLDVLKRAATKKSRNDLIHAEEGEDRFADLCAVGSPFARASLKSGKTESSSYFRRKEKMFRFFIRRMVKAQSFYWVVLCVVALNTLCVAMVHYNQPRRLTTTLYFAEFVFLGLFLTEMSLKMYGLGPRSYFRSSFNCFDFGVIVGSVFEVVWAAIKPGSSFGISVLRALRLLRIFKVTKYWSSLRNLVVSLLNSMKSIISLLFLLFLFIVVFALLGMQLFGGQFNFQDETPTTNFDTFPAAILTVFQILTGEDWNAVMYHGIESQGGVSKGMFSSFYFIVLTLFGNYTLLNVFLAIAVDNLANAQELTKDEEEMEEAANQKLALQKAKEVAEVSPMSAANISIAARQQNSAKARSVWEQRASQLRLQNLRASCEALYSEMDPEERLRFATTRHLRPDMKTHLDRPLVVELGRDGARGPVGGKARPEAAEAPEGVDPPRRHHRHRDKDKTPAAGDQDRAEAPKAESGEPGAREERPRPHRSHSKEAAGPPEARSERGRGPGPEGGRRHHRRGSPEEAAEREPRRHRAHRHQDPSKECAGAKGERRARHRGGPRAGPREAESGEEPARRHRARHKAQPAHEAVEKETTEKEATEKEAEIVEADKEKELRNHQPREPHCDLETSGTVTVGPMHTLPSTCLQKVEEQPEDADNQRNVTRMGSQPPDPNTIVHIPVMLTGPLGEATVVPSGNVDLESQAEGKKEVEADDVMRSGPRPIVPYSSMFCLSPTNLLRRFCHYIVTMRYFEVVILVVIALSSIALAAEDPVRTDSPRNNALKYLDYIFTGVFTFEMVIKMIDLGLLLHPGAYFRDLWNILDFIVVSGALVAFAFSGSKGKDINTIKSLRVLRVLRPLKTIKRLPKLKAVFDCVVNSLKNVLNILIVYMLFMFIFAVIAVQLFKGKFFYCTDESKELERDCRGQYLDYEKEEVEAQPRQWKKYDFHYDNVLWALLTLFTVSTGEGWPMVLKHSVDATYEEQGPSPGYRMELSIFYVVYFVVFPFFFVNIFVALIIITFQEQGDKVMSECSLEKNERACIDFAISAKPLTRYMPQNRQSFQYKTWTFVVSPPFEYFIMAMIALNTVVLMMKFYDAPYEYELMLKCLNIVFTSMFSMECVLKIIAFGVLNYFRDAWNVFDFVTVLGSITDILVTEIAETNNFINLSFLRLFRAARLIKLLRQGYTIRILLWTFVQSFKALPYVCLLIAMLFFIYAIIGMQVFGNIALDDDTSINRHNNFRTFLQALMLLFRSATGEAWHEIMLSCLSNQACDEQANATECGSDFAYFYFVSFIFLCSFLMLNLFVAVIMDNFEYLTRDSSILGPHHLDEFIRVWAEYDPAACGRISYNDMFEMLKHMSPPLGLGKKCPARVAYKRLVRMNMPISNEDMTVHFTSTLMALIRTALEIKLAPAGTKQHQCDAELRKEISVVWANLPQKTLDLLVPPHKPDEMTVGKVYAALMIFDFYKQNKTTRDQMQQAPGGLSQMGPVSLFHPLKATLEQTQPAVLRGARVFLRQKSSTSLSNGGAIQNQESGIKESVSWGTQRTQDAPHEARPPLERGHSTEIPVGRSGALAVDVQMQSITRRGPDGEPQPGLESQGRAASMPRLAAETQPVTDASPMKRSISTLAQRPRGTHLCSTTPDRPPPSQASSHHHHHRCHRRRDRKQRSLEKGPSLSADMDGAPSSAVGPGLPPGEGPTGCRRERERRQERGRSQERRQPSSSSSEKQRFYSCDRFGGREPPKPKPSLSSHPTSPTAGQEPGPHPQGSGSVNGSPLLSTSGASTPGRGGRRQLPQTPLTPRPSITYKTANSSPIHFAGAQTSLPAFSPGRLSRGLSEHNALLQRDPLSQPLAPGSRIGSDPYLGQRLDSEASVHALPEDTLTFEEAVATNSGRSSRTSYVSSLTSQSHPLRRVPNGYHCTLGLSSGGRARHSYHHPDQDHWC

The first assay has as its target T1, Human CaV2.2 channels (Homo sapiens, UniProt Q00975).
T1 construct: expressed in transfected cells; Kir2.3 also stably co-expressed
In words: Fluorescence assay for CaV2.2 channels using potassium depolarization to induce channel opening (FLIPR, Fluo 4). Format: cell-based. The following applies: 3 μM test compound, 30 mM KCl assay buffer (inactivated channel state), HEK293 cells. Put shortly: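 HEK293 cells stably co-expressing human CaV2.2 with α2δ and β subunits plus Kir2.3, Fluo-4 loaded; compounds preincubated 15 min at 25 °C in 1 mM or 30 mM KCl buffer (inactivated state), pH 7.4. Depolarized by KCl addition; baseline-normalized peak fluorescence (ex 480/em 535 nm) gave inhibition.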
As to `CC1(S(=O)(=O)c2cccc(C(F)F)c2)CCOC(c2ccc(S(C)(=O)=O)c(F)c2)C1` (stereo not shown) [SC-269, 4-[[3-(Difluoro-methyl)-phenyl]sulfonyl]-2-(3-fluoro-4-methylsulfonyl-phenyl)-4-methyl-tetrahydro-pyran], the “Activity Category: %-Inhib (CaV2.2) @3 μM @30 mM KCl” value (“Activity Category: %-Inhib” below) is “C (%-Inhibition >40% up to ≦75%)”.

For `CC1(S(=O)(=O)c2cccc(C(F)F)c2)CCOC(c2ccc(S(C)(=O)=O)c(F)c2)C1` (stereo not shown) [SC-270, 4-[[3-(Difluoro-methyl)-phenyl]sulfonyl]-2-(3-fluoro-4-methylsulfonyl-phenyl)-4-methyl-tetrahydro-pyran], the “Activity Category: %-Inhib” value is listed as “B (%-Inhibition >75% up to ≦95%)”.

For the molecule `CC1(S(=O)(=O)c2cccc(C(F)(F)F)c2)CCOC(c2ccc(S(C)(=O)=O)cc2C#N)C1` (stereo not shown) [SC-276, 5-Methylsulfonyl-2-[4-methyl-4-[[3-(trifluoromethyl)phenyl]sulfonyl]-tetrahydro-pyran-2-yl]-benzonitrile], the “Activity Category: %-Inhib” value is listed as “A (%-Inhibition >95%)”.

In the case of `CC1(S(=O)(=O)c2cccc(C(F)(F)F)c2)CCOC(c2cc(S(C)(=O)=O)ccc2C2CC2)C1` (stereo not shown) [SC-278, 2-(2-Cyclopropyl-5-methylsulfonyl-phenyl)-4-methyl-4-[[3-(trifluoromethyl)phenyl]sulfonyl]-tetrahydro-pyran], the “Activity Category: %-Inhib” value is “B (%-Inhibition >75% up to ≦95%)”.

As for `Cc1nc2cc(C3CC(C)(S(=O)(=O)c4cccc(C(F)(F)F)c4)CCO3)ccc2o1` (stereo not shown) [SC-280, 2-Methyl-5-[4-methyl-4-[[3-(trifluoromethyl)phenyl]sulfonyl]-tetrahydro-pyran-2-yl]-benzooxazole], the “Activity Category: %-Inhib” value is listed as “A (%-Inhibition >95%)”.

With `C[S+]([O-])c1ccc(C2CC(C)(S(=O)(=O)c3cccc(C(F)(F)F)c3)CCO2)c(F)c1` (stereo not shown) [SC-281, 2-[2-Fluoro-4-(methylsulfinyl)-phenyl]-4-methyl-4-[[3-(trifluoromethyl)phenyl]sulfonyl]-tetrahydro-pyran], the “Activity Category: %-Inhib” value was “B (%-Inhibition >75% up to ≦95%)”.

With `C[S+]([O-])c1ccc(C2CC(C)(S(=O)(=O)c3cccc(C(F)(F)F)c3)CCO2)c(F)c1` (stereo not shown) [SC-282, 2-[2-Fluoro-4-(methylsulfinyl)-phenyl]-4-methyl-4-[[3-(trifluoromethyl)phenyl]sulfonyl]-tetrahydro-pyran], the “Activity Category: %-Inhib” value is given as “B (%-Inhibition >75% up to ≦95%)”.

With `C[S+]([O-])c1ccc(C2CC(C)(S(=O)(=O)c3cccc(C(F)(F)F)c3)CCO2)c(F)c1` (stereo not shown) [SC-283, 2-[2-Fluoro-4-(methylsulfinyl)-phenyl]-4-methyl-4-[[3-(trifluoromethyl)phenyl]sulfonyl]-tetrahydro-pyran], the “Activity Category: %-Inhib” value is on record as “B (%-Inhibition >75% up to ≦95%)”.

Take `C[S+]([O-])c1ccc(C2CC(C)(S(=O)(=O)c3cccc(C(F)(F)F)c3)CCO2)c(F)c1` (stereo not shown) [SC-284, 2-[2-Fluoro-4-(methylsulfinyl)-phenyl]-4-methyl-4-[[3-(trifluoromethyl)phenyl]sulfonyl]-tetrahydro-pyran]: the “Activity Category: %-Inhib” value is recorded as “C (%-Inhibition >40% up to ≦75%)”.

With `C[S+]([O-])c1cc(Cl)ccc1C1CC(C)(S(=O)(=O)c2cccc(C(F)(F)F)c2)CCO1` (stereo not shown) [SC-288, 2-[4-Chloro-2-(methylsulfinyl)-phenyl]-4-methyl-4-[[3-(trifluoromethyl)phenyl]sulfonyl]-tetrahydro-pyran], the “Activity Category: %-Inhib” value was “B (%-Inhibition >75% up to ≦95%)”.

Take `C[S+]([O-])c1cc(Cl)ccc1C1CC(C)(S(=O)(=O)c2cccc(C(F)(F)F)c2)CCO1` (stereo not shown) [SC-289, 2-[4-Chloro-2-(methylsulfinyl)-phenyl]-4-methyl-4-[[3-(trifluoromethyl)phenyl]sulfonyl]-tetrahydro-pyran]: the “Activity Category: %-Inhib” value is recorded as “C (%-Inhibition >40% up to ≦75%)”.

Take `C[S+]([O-])c1cc(Cl)ccc1C1CC(C)(S(=O)(=O)c2cccc(C(F)(F)F)c2)CCO1` (stereo not shown) [SC-290, 2-[4-Chloro-2-(methylsulfinyl)-phenyl]-4-methyl-4-[[3-(trifluoromethyl)phenyl]sulfonyl]-tetrahydro-pyran]: the “Activity Category: %-Inhib” value is given as “B (%-Inhibition >75% up to ≦95%)”.

`C[S+]([O-])c1cc(Cl)ccc1C1CC(C)(S(=O)(=O)c2cccc(C(F)(F)F)c2)CCO1` (stereo not shown) [SC-291, 2-[4-Chloro-2-(methylsulfinyl)-phenyl]-4-methyl-4-[[3-(trifluoromethyl)phenyl]sulfonyl]-tetrahydro-pyran]: the “Activity Category: %-Inhib” value is given as “A (%-Inhibition >95%)”.

The same assay, now with this note: HEK293, 3 μM test compound, 30 mM KCl assay buffer (inactivated channel state), HEK293 cells; read-out: Activity Category: %-Inhib (CaV2.2) @3 μM @30 mM KCl.
On to `CC(C)c1cccc(S(=O)(=O)C2(C)CCOC(c3ccc(S(C)(=O)=O)c(F)c3)C2)c1` (stereo not shown) [SC-271, 2-(3-Fluoro-4-methylsulfonyl-phenyl)-4-[(3-isopropyl-phenyl)sulfonyl]-4-methyl-tetrahydro-pyran], for which the inhibition at 3 µM was greater than 95%.

With `CC1(S(=O)(=O)c2cccc(C(F)(F)F)c2)CCOC(c2cc(S(C)(=O)=O)ccc2C#N)C1` (stereo not shown) [SC-273, 4-Methylsulfonyl-2-[4-methyl-4-[[3-(trifluoromethyl)phenyl]sulfonyl]-tetrahydro-pyran-2-yl]-benzonitrile], the inhibition at 3 µM was 75 to 95%.

Take `CC1(S(=O)(=O)c2cccc(C(F)(F)F)c2)CCOC(c2ccc(S(C)(=O)=O)cc2C#N)C1` (stereo not shown) [SC-275, 5-Methylsulfonyl-2-[4-methyl-4-[[3-(trifluoromethyl)phenyl]sulfonyl]-tetrahydro-pyran-2-yl]-benzonitrile]: the inhibition at 3 µM was 75 to 95%.

For `CC1(S(=O)(=O)c2cccc(C(F)(F)F)c2)CCOC(c2cc(S(C)(=O)=O)ccc2C2CC2)C1` (stereo not shown) [SC-277, 2-(2-Cyclopropyl-5-methylsulfonyl-phenyl)-4-methyl-4-[[3-(trifluoromethyl)phenyl]sulfonyl]-tetrahydro-pyran], the inhibition at 3 µM was greater than 95%.

Regarding `Cc1nc2cc(C3CC(C)(S(=O)(=O)c4cccc(C(F)(F)F)c4)CCO3)ccc2o1` (stereo not shown) [SC-279, 2-Methyl-5-[4-methyl-4-[[3-(trifluoromethyl)phenyl]sulfonyl]-tetrahydro-pyran-2-yl]-benzooxazole], the inhibition at 3 µM lay within 75 to 95%.

For `CCc1nc2cc(C3CC(C)(S(=O)(=O)c4cccc(C(F)(F)F)c4)CCO3)ccc2o1` (stereo not shown) [SC-285, 2-Ethyl-5-[4-methyl-4-[[3-(trifluoromethyl)phenyl]sulfonyl]-tetrahydro-pyran-2-yl]-benzooxazole], the inhibition at 3 µM was in the range of 75 to 95%.

With `CC1(S(=O)(=O)c2cccc(C(F)(F)F)c2)CCOC(c2ccc(S(=O)(=O)CCO)cc2)C1` (stereo not shown) [SC-286, 2-[[4-[4-Methyl-4-[[3-(trifluoromethyl)phenyl]sulfonyl]-tetrahydro-pyran-2-yl]-phenyl]sulfonyl]-ethanol], the inhibition at 3 µM lay in the range of 75 to 95%.

For `CC1(S(=O)(=O)c2cccc(C(F)(F)F)n2)CCOC(c2ccc(S(C)(=O)=O)cc2)C1` (stereo not shown) [SC-293, 2-[[4-Methyl-2-(4-methylsulfonyl-phenyl)-tetrahydro-pyran-4-yl]sulfonyl]-6-(trifluoromethyl)-pyridine], the inhibition at 3 µM lay in the range of 40 to 75%.

As for `CC1(S(=O)(=O)c2cccc(C(F)(F)F)c2)CCOC(c2cc(S(C)(=O)=O)ccc2F)C1` (stereo not shown) [SC-294, 2-(2-Fluoro-5-methylsulfonyl-phenyl)-4-methyl-4-[[3-(trifluoromethyl)phenyl]sulfonyl]-tetrahydro-pyran], the inhibition at 3 µM is 75 to 95%.

(Values after patent US9896440B2, “Aryl substituted heterocyclyl sulfones” (GRÜNENTHAL GMBH, priority 2014, dated 2018).)
